Data: US20060111324A1, “(+)-Ttrans-isomers of (1-phosphonomethoxy-2-alkylcyclopropyl)methyl nucleoside derivatives, process for the preparation of stereoisomers thereof, and use of antiviral agents thereof” (LG Life Sciences, priority 2002, published 2006)
Where two headings read alike, the source gives them in different places.

Assays:
[1] = test system: Hepatitis B Virus (HBV); test: Inhibition of hepatitis B virus replication in HepG2.2.15 cells, quantitative PCR of culture medium; type: cell-based; settings: for pharmaceutical activity as an antiviral agent (in words): comparison among the compounds of Table 2
[2] = test system: HepG2.2.15 cell
[3] = Determination of cytotoxicity (MTT) in HepG2.2.15 cells; settings: human
[4] = test system: HBV; test: Pharmacological test on HBV transgenic mouse (serum HBV DNA by PCR); type: in vivo; settings: for Result: number of mice showing pharmacological effect / number of total mice: effect = blood does not contain HBV DNA
[5] = test system: HepG2.2.15 cell; test: Determination of cytotoxicity (MTT) in HepG2.2.15 cells; settings: read-out: CC50 (μM) in HepG2.2.15; MTT, 10th day of drug treatment
[6] = Hepatitis B virus, 240 h, HepG2.2.15 cells, 10 days drug treatment, HBV DNA in medium by PCR

“[{(±)-trans-1-({2-amino-6-[(4-methoxyphenyl)sulfanyl]-9H-purine-9-yl}methyl)-2-ethylcyclopropyl }oxy]methylphosphonic acid [Compound 43]” showed an EC50 [1] of over 0.2 µM and a CC50 [2] of over 1 mM.
For `CC[C@H]1C[C@]1(Cn1cnc2c(O)nc(N)nc21)OCP(=O)(O)O` [Compound 12, ({(1S,2S)-1-[(2-amino-6-hydroxy-9H-purine-9-yl)methyl]-2-ethylcyclopropyl}oxy)methylphosphonic acid], the EC50 [1, 6] was 0.03 µM, the “pharmaceutical activity as an antiviral agent (in words)” value [1] was “most excellent pharmaceutical activity” and the CC50 at 10 days [3] was over 1 mM.
In the case of `CC(C)OC(=O)OCOP(=O)(COC1(Cn2cnc3cnc(N)nc32)CC1C)OCOC(=O)OC(C)C` [Compound 7, (1S,2S)-bis {[(isopropoxycarbonyl)oxy]methyl}({1-[(2-amino-9H-purine-9-yl)methyl]-2-methylcyclopropyl}oxy)methylphosphonate], the “pharmacological effect (in words)” value ([4]; HBV transgenic mice, orally administrated at 1 mpk or less) is reported as “very excellent pharmacological effect” and the “Result: number of mice showing pharmacological effect / number of total mice” value ([4]; oral, 1 mg/kg/day) is reported as 5/5.
With `COc1ccc(Sc2nc(N)nc3c2ncn3CC2(OCP(=O)(OCOC(=O)C(C)(C)C)OCOC(=O)C(C)(C)C)CC2C)cc1` [Compound 8, (1S,2S)-3-{[(1-{[2-amino-6-(4-methoxyphenylthio)-9H-purine-9-yl]methyl}-2-methylcyclopropyl)oxy]methyl}-8,8-dimethyl-3,7-dioxo-2,4,6-trioxa-3λ^5-phospanon-1-yl-pivalate] the “Result: number of mice showing pharmacological effect / number of total mice” value ([4]; oral, 1 mg/kg/day) was 2/5.
`CCC1CC1(Cn1cnc2c(O)nc(N)nc21)OCP(=O)(O)O` (single isomer, unassigned) [Compound 37, ({(−)-trans-1-1(2-amino-6-hydroxy-9H-purine-9-yl)methyl]-2-ethylcyclopropyl}oxy)methylphosphonic acid] gave an EC50 [1, 6] of over 40 µM and a CC50 at 10 days [3] of over 1 mM.
For “({(±)-trans-1-[(2-amino-6-hydroxy-9H-purine-9-yl)methyl]-2-propylcyclopropyl}oxy)methylphosphonic acid [Compound 40]”, the EC50 [1] was 1.2 µM and the CC50 [2] was over 1 mM.
`CC1CC1(Cn1cnc2c(O)nc(N)nc21)OCP(=O)(O)O` (single isomer, unassigned) [Compound 36, {(−)-trans-1-[(2-amino-6-hydroxy-9H-purine-9-yl)methyl]-2-methylcyclopropyl}oxy)methylphosphonic acid] gave an EC50 ([1]; HepG2.2.15 cells, 10 days drug treatment, HBV DNA in medium by PCR) of over 10 µM and a CC50 [5] of over 1000 µM.
`C[C@@H]1C[C@]1(Cn1cnc2c(O)nc(N)nc21)OCP(=O)(O)O` (single isomer, unassigned) [Compound 38, ({(+)-cis-1-[(2-amino-6-hydroxy-9H-purine-9-yl)methyl]-2-methylcyclopropyl}oxy)methylphosphonic acid] gave an EC50 [1, 6] of over 10 µM and a CC50 at 10 days [3] of over 1 mM.
Molecule `CCC1CC1(Cn1cnc2cnc(N)nc21)OCP(=O)(O)O` [Compound 13, ({(1S,^2S)-1-[(2-amino-9H-purine-9-yl)methyl]-2-ethylcyclopropyl}oxy)methylphosphonic acid] has an EC50 [1, 6] of over 10 µM and a CC50 at 10 days [3] of over 1 mM.
With `CC1CC1(Cn1cnc2cnc(N)nc21)OCP(=O)(OCOC(=O)C(C)(C)C)OCOC(=O)C(C)(C)C` [Compound 6, (1S,2S)-3-[({1-[(2-amino-9H-purine-9-yl)methyl]-2-methylcyclopropyl}oxy)methyl]-8,8-dimethyl-3,7-dioxo-2,4,6-trioxa-3λ^5-phosphanon-1-yl-pivalate] the “Result: number of mice showing pharmacological effect / number of total mice” value ([4]; oral, 1 mg/kg/day) was 5/5.
In the case of `C[C@H]1C[C@]1(Cn1cnc2cnc(N)nc21)OCP(=O)(O)O` [Compound 2, ({(1S,2S)-1-[(2-amino-9H-purine-9-yl)methyl]-2-methylcyclopropyl}oxy)methylphosphonic acid], the EC50 [1, 6] is reported as 1 µM, the “Result: number of mice showing pharmacological effect / number of total mice” value ([4]; subcutaneous, 10 mg/kg/day) is reported as 4/4 and the CC50 at 10 days [3] is reported as over 1 mM.
In the case of `C[C@H]1C[C@]1(Cn1cnc2c(O)nc(N)nc21)OCP(=O)(O)O` [Compound 1, (((1S,2S)-1-[(2-amino-6-hydroxy-9H-purine-9-yl)methyl]-2-methylcyclopropyl}oxy)methylphosphonic acid], the EC50 [1, 6] is reported as 0.03 µM, the “pharmaceutical activity as an antiviral agent (in words)” value [1] is reported as “most excellent pharmaceutical activity” and the CC50 at 10 days [3] is reported as over 1 mM.
“({(±)-trans-1-[(2-amino-9H-purine-9-yl)methyl]-2-propylcyclopropyl}oxy)methylphosphonic acid [Compound 39]” showed an EC50 [1] of over 40 µM and a CC50 [2] of over 1 mM.
“({(±)-trans-1-[(6-amino-9H-purine-9-yl)methyl]-2-propylcyclopropyl}oxy)methylphosphonic acid [Compound 41]” showed an EC50 [1] of over 30 µM and a CC50 [2] of over 1 mM.
Work on `CC1CC1(Cn1cnc2c(N)ncnc21)OCP(=O)(O)O` (stereo not drawn) [Compound 45, ({[(+)-cis-[1-(6-amino-9H-purine-9-yl)methyl]-2-methylcyclopropyl}oxylmethylphosphonic acid] yielded an EC50 [1, 6] of over 40 µM and a CC50 at 10 days [3] of over 1 mM.
With `C[C@@H]1C[C@]1(Cn1cnc2c(Sc3ccc([N+](=O)[O-])cc3)nc(N)nc21)OCP(=O)(O)O` (relative stereo) [Compound 44, [{(+)-cis-1-({2-amino-6-[(4-nitrophenyl)sulfanyl]-9H-purine-9-yl}methyl)-2-methylcyclopropyl}oxy]methylphosphonic acid] the EC50 [1, 6] was over 40 µM and the CC50 at 10 days [3] was over 1 mM.
